Results from patent publication US20010044102A1, “ASSAYS AND REAGENTS FOR IDENTIFYING MODULATORS OF CDC25-MEDIATED MITOTIC ACTIVATION” (priority 1996, published 2001).

Legend:
[1] = system: cdc25; settings: cited from earlier work
[2] = system: Val 5 cells; test: Myc-driven apoptosis and DNA replication in MycER cells treated with cdc25A antisense oligonucleotide, scored by TUNEL; format: cell-based; settings: MycER induced by β-estradiol, 0.1% serum, shift from 39 to 32° C., FIG. 5B
Protocol: Finally, to investigate whether induction of the cdc25A gene is essential for Myc-driven apoptosis, we incubated Val 5 cells after MycER induction by β-estradiol with an antisense cdc25A oligonucleotide. Following this incubation, cells were shifted from 39 to 32° C., activating wild type p53 function, which normally results in apoptosis (Wagner et al. (1994) Genes Dev. 8:2817-2830). A scrambled oligonucleotide with the same nucleotide content was used in control experiments. We observed that both apoptosis and DNA replication was inhibited by the treatment with the antisense, but not with scrambled (control) oligonucleotides (FIG. 5B).
Human cdc25A, B and C under control of CMV promoter and pCMV CD20 has been described (Galaktionov et al. (1995) Science 269:1575-1577). […] Apoptotic figures were scored 24 hours later upon microscopic investigation of the cultures based on CD20 staining, indicative of successful transfection (more than 2%, usually 8-10%), and visible morphological changes indicative of cell death (membrane blebbing, chromatin condensation, etc.). […] 48 hours after shifting to 0.1% serum, MycER fusion protein was induced by the addition of β-estradiol and cell incubation continued for another 24 hours, at which point cells were photographed and apoptosis was scored by TUNEL.

Row | Compound | cdc25 inhibitor (previously described in the literature) [1] | DNA replication [2]
1 | CN1C2CC3C1C1C(C4=C(C(=O)C(N)=CC4=O)C(CO)N1C2C#N)N1CCOC31 (stereo not drawn) [dnacin A1] | cdc25 inhibitors | 
2 | CN1C2CC3C1C1C(C4=C(C(=O)C(N)=CC4=O)C(CO)N1C2O)N1CCOC31 (stereo not drawn) [dnacin B1] | cdc25 inhibitors | 
3 | scrambled oligonucleotide: scrambled oligonucleotide (GGTACCTTGACCCGGGCTCG) with the same nucleotide content, used as control (chemistry not given here) |  | not
